This note sets out measurements from patent US20110184188A1, “Insecticidal Benzenedicarboxamide Derivative” (priority 2008, published 2011).

The first data set in a line: logP(acid) by reverse phase (C18) chromatography at pH 2.3. The data set is classed as physicochemical. As to conditions: pH 2.3.
`Cc1cc(Cn2nc(C(F)(F)F)nc2C(F)(F)F)ncc1[N+](=O)[O-]` [SYNTHESIS EXAMPLE 69-1] yielded a chromatographic logP of 3.38.
For `Cc1nc(Cn2nc(C(F)(F)C(F)(F)F)cc2C(F)(F)C(F)(F)F)ccc1N` [SYNTHESIS EXAMPLE 81-2], the chromatographic logP came out at 2.83.
On the same count and under the same terms, then `Cc1nc(Cn2cc(C(F)(F)C(F)(F)F)c(C(F)(F)C(F)(F)F)n2)ccc1N` [SYNTHESIS EXAMPLE 82-2], with 2.64; and `Cc1nc(Cn2nnc(C(F)(F)F)n2)ccc1[N+](=O)[O-]` [SYNTHESIS EXAMPLE 85-1], with 2.85.

The same data set, now with this note: pH 2.3; reverse phase (C18) chromatography, pH2.3, 0.1% phosphoric acid / acetonitrile gradient 10-95%; read-out: logP (acid).
On to `Cc1nc(Cn2cnc(C(F)(F)C(F)(F)C(F)(F)F)n2)ccc1N` [SYNTHESIS EXAMPLE 84-2], for which the chromatographic logP came to 1.52.
Same read-out and setting: in the case of `Cc1nc(Cn2nnc(C(F)(F)C(F)(F)C(F)(F)F)n2)ccc1[N+](=O)[O-]` [SYNTHESIS EXAMPLE 86-1] it was 3.78.
Same read-out and setting: in the case of `Cc1nc(Cn2nnc(C(F)(F)C(F)(F)C(F)(F)F)n2)ccc1N` [SYNTHESIS EXAMPLE 86-2] it was 2.3.

The same data set, now with this note: reverse phase (C18) chromatography column, pH 2.3; reverse phase (C18) chromatography, pH2.3, 0.1% phosphoric acid / acetonitrile gradient 10-95%; read-out: logP (acid).
As for `Cc1cc(COS(C)(=O)=O)ncc1[N+](=O)[O-]` [SYNTHESIS EXAMPLE 68-1], the chromatographic logP stood at 1.49.
With `Cc1cc(Cn2nc(C(F)(F)F)cc2C(F)(F)F)ncc1[N+](=O)[O-]` [SYNTHESIS EXAMPLE 68-2], the chromatographic logP came out at 3.64.
`Cc1nc(Cn2nc(C(F)(F)C(F)(F)F)cc2C(F)(F)C(F)(F)F)ccc1[N+](=O)[O-]` [SYNTHESIS EXAMPLE 81-1]: the chromatographic logP was determined as 4.68.
Take `Cc1nc(Cn2cc(C(F)(F)C(F)(F)F)c(C(F)(F)C(F)(F)F)n2)ccc1[N+](=O)[O-]` [SYNTHESIS EXAMPLE 82-1]: the chromatographic logP stood at 4.5.
Same read-out and setting: in the case of `Cc1nc(Cn2cnc(C(F)(F)C(F)F)n2)ccc1N` [SYNTHESIS EXAMPLE 83-2] it was 0.55.
On the same count and under the same terms, in the case of `Cc1nc(Cn2nnc(C(F)(F)F)n2)ccc1N` [SYNTHESIS EXAMPLE 85-2] it was 1.18.

Staying with this data set, now noted: reverse phase (C18) chromatography, pH 2.3.
As for `CSC[C@H](C)NC(=O)c1c(SC)cccc1C(=O)Nc1ccc(Cn2nc(C(F)(F)C(F)F)nc2C(F)(F)F)nc1C` [14-397], the “logP (acid)” value is “logP (acid) 3.49”.
On the same count and under the same terms, in the case of `CSC[C@H](C)NC(=O)c1c(C(=O)Nc2ccc(Cn3nc(C(F)(F)F)nc3C(F)(F)F)cc2C)cccc1S(=O)(=O)N(C)C` [14-414] it was “logP (acid) 3.54”; in that of `CSC[C@H](C)NC(=O)c1c(SC)cccc1C(=O)Nc1cnc(Cn2nc(C(F)(F)F)nc2C(F)(F)F)cc1C` [14-415], “logP (acid) 3.3”.
Same read-out and setting: in the case of `CSC[C@H](C)NC(=O)c1c(Cl)cccc1C(=O)Nc1ccc(Cn2nc(C(F)(F)C(F)(F)F)n(N)c2=O)cc1C` [14-421] it was “logP (acid) 2.79”; in that of `Cc1cc(Cn2nc(C(F)(F)C(F)(F)F)n(N)c2=O)ccc1NC(=O)c1cccc(Cl)c1C(=O)N[C@@H](C)C[S+](C)[O-]` (stereo partly shown) [14-422], “logP (acid) 1.82”; in that of `Cc1cc(Cn2nc(C(F)(F)C(F)(F)F)n(N)c2=O)ccc1NC(=O)c1cccc(Cl)c1C(=O)N[C@@H](C)CS(C)(=O)=O` [14-423], “logP (acid) 2.13”.
